# Values quoted from earlier work in patent US20080269177A1, “PESTICIDAL COMPOSITIONS” (ECOSMART TECHNOLOGIES, INC., priority 2007, published 2008).
# Key:
# [1] = even treatments as low as 1.2%
# [2] = even at the lowest doses, 30 mg/kg/day
smiles,measurement,setting,value
"CCCCOCCOCCOCc1cc2c(cc1CCC)OCO2 [PBO, piperonyl butoxide]",tumour finding in animal studies,[1],hepatocellular carcinomas
same,liver weights in chronic toxicity studies,[2],increased liver weights
